How the values were obtained:
BC cell line = test system: BC cell line; design: method as in PMID 17089326; details: cited from earlier work
KMS-12-PE cells [1] = test: Proliferation, [3H]-thymidine uptake, KMS-12-PE; assay type: cell-based
Description: (§1) Acute myeloid leukemia cell line HL-60 and multiple myeloma cell lines AMO-1 and KMS-12-PE were obtained from the German Collection of Microorganisms and Cell Cultures (DSMZ), Braunschweig, Germany, and non-tumorigenic stromal cell line HS-5 was acquired from the American Type Culture Collection (ATCC, Manassas, VA, USA). All cell lines were cultured in RPMI 1640 medium without phenol red (Pan Biotech, Aidenbach, Germany), supplemented with 2 mM glutamine, 100 U/mL penicillin, 100 µg/mL streptomycin (Sigma-Aldrich, St. Louis, MO, USA), and 10% fetal bovine serum (FBS Maximus, Catus Biotech GmbH, Tutzing, Germany) at 37 °C in a humidified atmosphere of 5% CO2/95% air. Cells were fed twice weekly. Logarithmically growing cells were resuspended at 1 × 10^5 cells/mL, plated in triplicate in round-bottom 96-well plates (100 µL per well; Falcon, Becton Dickinson, Franklin Lakes, NJ, USA), and incubated at 37 °C in 5% CO2/95% air for 2 h. Subsequently, the compounds were adjusted in the cell culture medium to reach the final concentrations in a total volume of 150 µL and incubated for an additional 72 h. Cell proliferation was assessed by [^3H]-thymidine uptake. Each well was exposed to 2 µCi [^3H]-thymidine (Hartmann Analytic, Braunschweig, Germany) during the final 12–16 h of incubation. Cells were harvested using a semi-automated device, and [^3H]-thymidine incorporation (expressed in counts per minute, cpm) was measured with a scintillation counter (MicroBeta TriLux, PerkinElmer, Waltham, MA, USA). Metabolic activity was assessed by resazurin staining. Resazurin (Carl Roth, Karlsruhe, Germany) was dissolved in distilled water at a concentration of 0.1 mg/mL, and 15 µL of this solution was added to each well, followed by a 2 h incubation at 37 °C. Relative fluorescence units (RFUs) were measured using a Synergy H1 plate reader equipped with a 560 nm excitation/590 nm emission filter set (BioTek; Agilent, Santa Clara, CA, USA). Proliferation and metabolic activity in the absence of compounds were defined as 100% (control), and the values for compound-treated samples were expressed as percentages relative to the control. Selectivity indices were calculated by dividing the IC50 value of each compound against HS-5 cells through the IC50 values against the investigated cell lines.
(§2) The Wilcoxon Rank Sum Test was used to analyze proliferation and metabolic activity in the absence and presence of varying compound concentrations (NCSS 2007 software, version 07.1.2, Kaysville, UT, USA). A p-value < 0.05 was considered statistically significant. IC50 values were calculated using GraphPad Prism 10.1.2. This software reports 95% confidence intervals instead of standard errors. […] Nonetheless, the figures clearly illustrate the IC50 values due to the narrow concentration range tested.

[2] = test system: human colon cancer cell line HT-29; design: method as in PMID 22685350; details: cited from earlier work
HS-5 cells = test: Proliferation, [3H]-thymidine uptake, non-malignant HS-5; assay type: cell-based; details: HS5; HS-5 (non-malignant), 72 h, 95% confidence interval in brackets; read-out: IC50 inhibition of proliferation
Description: as §1, with “Subsequently, the compounds were adjusted in the cell culture medium to reach the final concentrations in a total volume of 150 µL and incubated for an additional 72 h.” left out, “Each well was exposed to 2 µCi [^3H]-thymidine (Hartmann Analytic, Braunschweig, Germany) during the final 12–16 h of incubation.” left out, “Resazurin (Carl Roth, Karlsruhe, Germany) was dissolved in distilled water at a concentration of 0.1 mg/mL, and 15 µL of this solution was added to each well, followed by a 2 h incubation at 37 °C.” left out
The Wilcoxon Rank Sum Test was used to analyze proliferation and metabolic activity in the absence and presence of varying compound concentrations (NCSS 2007 software, version 07.1.2, Kaysville, UT, USA). […] IC50 values were calculated using GraphPad Prism 10.1.2. […]

HL-60 cells [3] = test: Proliferation, [3H]-thymidine uptake, HL-60; assay type: cell-based
Description: as §1, §2

AMO-1 cells = test: Metabolic activity, resazurin staining, AMO-1; assay type: cell-based
Description: as §1, §2
(§3) Proliferation inhibition often leads to cell death. Therefore, the cytotoxic activity of the compounds was further evaluated using a modified 3-(4,5-dimethylthiazol-2-yl)-2,5-diphenyltetrazolium bromide (MTT) assay, the resazurin (Alamar Blue) assay. Metabolically active cells reduce the non-fluorescent dye resazurin to the fluorescent dye resorufin via mitochondrial reductase activity, which correlates with cell viability. In the first step the metabolic activity of the four isolated flavonoids was investigated, showing a dose-dependent reduction, but to a much lower extent than in the proliferation assays (Table A2). In fact, only 7,3′,4′-trimethoxymyricetin (2) inhibited the metabolic activity of all four cell lines by more than 50% at a concentration of 100 µM.

B16 = test system: B16; design: method as in PMID 15577239; details: cited from earlier work
MOLM-13 cells [4] = test: Proliferation, [3H]-thymidine uptake, MOLM-13; assay type: cell-based
Description: [The source words this procedure for another cell line and reports this cell line under the same test.] as §1, §2

[5] = test system: HL-60, MOLM-13, AMO-1, and KMS-12 PE cancer cells; test: Metabolic activity, range over the four tested cancer cell lines; assay type: cell-based; details: HL-60, MOLM-13, AMO-1, KMS-12 PE; read-out: IC50 inhibition of metabolic activity, range over cell lines
Description: Acute myeloid leukemia cell line HL-60 and multiple myeloma cell lines AMO-1 and KMS-12-PE were obtained from the German Collection of Microorganisms and Cell Cultures (DSMZ), Braunschweig, Germany, and non-tumorigenic stromal cell line HS-5 was acquired from the American Type Culture Collection (ATCC, Manassas, VA, USA). All cell lines were cultured in RPMI 1640 medium without phenol red (Pan Biotech, Aidenbach, Germany), supplemented with 2 mM glutamine, 100 U/mL penicillin, 100 µg/mL streptomycin (Sigma-Aldrich, St. Louis, MO, USA), and 10% fetal bovine serum (FBS Maximus, Catus Biotech GmbH, Tutzing, Germany) at 37 °C in a humidified atmosphere of 5% CO2/95% air. […] Cell proliferation was assessed by [^3H]-thymidine uptake. […] Cells were harvested using a semi-automated device, and [^3H]-thymidine incorporation (expressed in counts per minute, cpm) was measured with a scintillation counter (MicroBeta TriLux, PerkinElmer, Waltham, MA, USA). Metabolic activity was assessed by resazurin staining. […] Relative fluorescence units (RFUs) were measured using a Synergy H1 plate reader equipped with a 560 nm excitation/590 nm emission filter set (BioTek; Agilent, Santa Clara, CA, USA). Proliferation and metabolic activity in the absence of compounds were defined as 100% (control), and the values for compound-treated samples were expressed as percentages relative to the control. […]

EOL-1 = test system: EOL-1; design: method as in PMID 29350920; details: cited from earlier work
KMS-12-PE cells [6] = test: Metabolic activity, resazurin staining, KMS-12-PE; assay type: cell-based
Description: as §1, §2, §3

HL-60 cells [7] = test: Metabolic activity, resazurin staining, HL-60; assay type: cell-based
Description: as §1, §2, §3

MOLM-13 = test system: MOLM-13; design: method as in PMID 29350920; details: cited from earlier work
MOLM-13 cells [8] = test: Metabolic activity, resazurin staining, MOLM-13; assay type: cell-based
Description: [The source words this procedure for another cell line and reports this cell line under the same test.] as §1, §2, §3

NF-κB = test system: NF-κB; design: method as in PMID 25621077; details: HT-29; cited from earlier work
NF-κB p65 = test system: NF-κB p65; design: method as in PMID 22685350; details: read-out: concentration inhibiting NF-κB p65; cited from earlier work
HT-29 cells = test system: HT-29 cells; design: method as in PMID 29350920; details: cited from earlier work

## C=C(C)C(=O)O[C@H]1C[C@@]2(C)OC(=CC2=O)/C(CO)=C\[C@H]2OC(=O)C(=C)[C@H]12 [Compound 5, goyazensolide]
BC cell line
  IC50: < 300 nM
KMS-12-PE cells [1]; Homo sapiens, KMS-12-PE, 72 h, KMS-12-PE, 72 h, 95% confidence interval in brackets, read-out: IC50 inhibition of proliferation
  IC50: 1500 nM
KMS-12-PE cells [1]; IC50 HS-5 / IC50 KMS-12-PE
  Selectivity index (proliferation): 1.3
[2]
  IC50: 560 nM
HS-5 cells
  IC50: 2000 nM
HL-60 cells [3]; Homo sapiens, HL-60, 72 h, 95% confidence interval in brackets, read-out: IC50 inhibition of proliferation
  IC50: 1100 nM
HL-60 cells [3]; IC50 HS-5 / IC50 HL-60
  Selectivity index (proliferation): 1.8
AMO-1 cells; Homo sapiens, AMO1, AMO-1, 72 h, resazurin, 95% confidence interval in brackets, read-out: IC50 inhibition of metabolic activity
  IC50: 2000 nM
AMO-1 cells; IC50 HS-5 / IC50 AMO-1
  Selectivity index (metabolic activity): 1.3
B16
  IC50: 2080 nM
MOLM-13 cells [4]; Homo sapiens, MOLM-13, 72 h, 95% confidence interval in brackets, read-out: IC50 inhibition of proliferation
  IC50: 1000 nM
MOLM-13 cells [4]; IC50 HS-5 / IC50 MOLM-13
  Selectivity index (proliferation): 2.0
[5]
  IC50: 1000 to 2000 nM
EOL-1
  IC50: 1100 nM
KMS-12-PE cells [6]; Homo sapiens, KMS-12-PE, 72 h, resazurin, 95% confidence interval in brackets, read-out: IC50 inhibition of metabolic activity
  IC50: 1900 nM
KMS-12-PE cells [6]; IC50 HS-5 / IC50 KMS-12-PE
  Selectivity index (metabolic activity): 1.4
HL-60 cells [7]; Homo sapiens, HL-60, 72 h, resazurin, 95% confidence interval in brackets, read-out: IC50 inhibition of metabolic activity
  IC50: 1700 nM
HL-60 cells [7]; IC50 HS-5 / IC50 HL-60
  Selectivity index (metabolic activity): 1.5
MOLM-13
  IC50: 860 nM
MOLM-13 cells [8]; Homo sapiens, MOLM-13, 72 h, resazurin, 95% confidence interval in brackets, read-out: IC50 inhibition of metabolic activity
  IC50: 1000 nM
MOLM-13 cells [8]; IC50 HS-5 / IC50 MOLM-13
  Selectivity index (metabolic activity): 2.6
NF-κB
  NF-κB inhibition (in words): potent NF-κB inhibitor
NF-κB p65
  IC50: 3.8 µM
HT-29 cells
  IC50: 560 nM

— PMC12388523, “Flavonoids and Sesquiterpene Lactones from Lychnophora ericoides (Arnica-Do-Cerrado) and Their In Vitro Effects on Multiple Myeloma and Acute Myeloid Leukemia” (Metabolites, 2025)
